Results taken from publication PMC3804772, “Rational Design, Synthesis, and Biological Evaluation of Third Generation α-Noscapine Analogues as Potent Tubulin Binding Anti-Cancer Agents” (PLoS ONE, 2013).

Legend:
[1] = system: human lung adenocarcinoma epithelial cell line (A549); assay: In vitro cell proliferation assay (SRB), A549; type: cell-based; conditions: 72 h, mean ± S.D.
Experimental: (§1) The cell proliferation assay was performed in 96-well plates as described previously. A panel of four cancer cell lines of different tissues of origins, namely: human lung adenocarcinoma epithelial cell line (A549), human lymphoblast cell line (CEM), human cervix cell line (HeLa) and human breast epithelial cell line (MCF-7) were studied. These cell lines were obtained from the National Repository of Animal Cell Culture, National Centre for Cell Sciences, Pune (NCCS), India. Briefly, 2 x10^3 cells were seeded in each well and were incubated with gradient concentrations of 5a, 6a-j compounds for 72 h. The cells were then fixed with 50% trichloroacetic acid and stained with 0.4% sulforhodamine B (SRB) dissolved in 1% acetic acid. Cells were then washed with1% acetic acid to remove excess (unbound) SRB. The protein-bound SRB was dissolved with 10 mM Tris base and the absorbance at 564 nm was determined using a SPECTRAmax PLUS 384 microplate spectrophotometer.

[2] = system: MCF-7 cells; assay: Cell cycle analysis by flow cytometry (propidium iodide); type: cell-based, human; conditions: MCF-7, 25 µM
Experimental: The flow cytometric evaluation of the cell cycle status was performed as described previously. Briefly, cells (2 x 10^6) treated with the noscapinoids up to 72 h were centrifuged, washed twice with cold PBS, and fixed in 70% ethanol. Tubes containing the cell pellets were stored at 4 °C for minimum of 24 h. Cells were then centrifuged at 1000 x g for 10 min and the supernatant was discarded. The pellets were washed twice with 5 ml of PBS and then stained with 0.5 ml of propidium iodide (0.1% of Pl + 0.6% Triton-X in PBS) and 0.5 ml of RNase A (2 mg/ml) for 45 minutes in dark. Samples were then analyzed on a FACS Calibur flow cytometer ([…]).

[3] = system: human cervix cell line (HeLa); assay: In vitro cell proliferation assay (SRB), HeLa; type: cell-based; conditions: 72 h, mean ± S.D.
Experimental: as §1

[4] = target: T1, tubulin (Bos taurus, UniProt P81947+Q6B856); assay: Tubulin binding assay (quenching of intrinsic tryptophan fluorescence); design: species or system bovine; conditions: for Kd: 2 µM tubulin, PEM buffer pH 6.8, 37 °C, 45 min, mean ± S.D.; for Experimental ΔGbind: calculated from KD, ΔGbind = RT ln KD, T = 298 K
T1 construct: Tubulin devoid of microtubule-associated proteins (MAPs) was purified from bovine brain; from tissue; host or cells: bovine brain
T1 sequence (Q6B856 whole entry): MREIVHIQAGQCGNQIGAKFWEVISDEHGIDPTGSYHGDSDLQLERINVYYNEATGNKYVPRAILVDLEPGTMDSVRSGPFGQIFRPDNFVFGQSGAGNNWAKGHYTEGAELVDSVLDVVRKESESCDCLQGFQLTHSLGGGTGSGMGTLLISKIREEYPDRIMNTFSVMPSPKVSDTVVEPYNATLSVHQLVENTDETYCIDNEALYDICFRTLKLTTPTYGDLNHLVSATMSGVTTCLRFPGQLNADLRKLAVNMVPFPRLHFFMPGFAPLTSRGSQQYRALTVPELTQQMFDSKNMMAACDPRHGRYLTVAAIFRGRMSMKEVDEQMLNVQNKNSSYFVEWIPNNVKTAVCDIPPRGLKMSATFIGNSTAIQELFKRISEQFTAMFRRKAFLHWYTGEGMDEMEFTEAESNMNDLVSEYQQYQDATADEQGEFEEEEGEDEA
T1 sequence (P81947 whole entry): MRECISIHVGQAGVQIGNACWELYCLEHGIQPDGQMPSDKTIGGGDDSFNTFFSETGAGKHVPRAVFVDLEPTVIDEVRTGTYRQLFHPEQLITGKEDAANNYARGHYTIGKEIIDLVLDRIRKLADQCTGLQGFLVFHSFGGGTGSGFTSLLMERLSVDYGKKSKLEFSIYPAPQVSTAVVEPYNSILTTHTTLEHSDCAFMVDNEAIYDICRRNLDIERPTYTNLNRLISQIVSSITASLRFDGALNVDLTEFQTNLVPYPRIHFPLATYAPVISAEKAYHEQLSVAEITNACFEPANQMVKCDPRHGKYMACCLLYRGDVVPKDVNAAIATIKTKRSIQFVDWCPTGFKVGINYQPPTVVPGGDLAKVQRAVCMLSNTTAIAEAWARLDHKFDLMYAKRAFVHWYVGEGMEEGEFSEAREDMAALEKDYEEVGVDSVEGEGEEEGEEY
Experimental: Tubulin devoid of microtubule-associated proteins (MAPs) was purified from bovine brain by cycles of temperature-dependent polymerization and depolymerization as described previously followed by phosphocellulose chromatography. The concentration of the tubulin was determined by the method of Bradford using BSA as the standard. Purified tubulin was quickly frozen as drops in liquid nitrogen and stored at - 80 °C until used.
Noscapinoids quench the […] intrinsic tryptophan fluorescence of tubulin in a concentration-dependent fashion as described previously. This has allowed an easy method for measuring the tubulin-noscapinoids interactions. Briefly, the compounds 5a, 6a-j (0-200 µM) were incubated with 2 µM tubulin in PEM buffer (100 mM PIPES, pH 6.8, 3 mM MgSO4, and 1 mM EGTA) at 37 °C for 45 min. After incubation, the samples were excited at 295 nm. The relative intrinsic fluorescence intensity of the tubulin was then monitored in the absence and presence of the compound 5a, 6a-j using a Varian Cary Eclipse Fluorescence Spectrophotometer (Agilent Technologies, CA, USA). The emission readings were recorded at 335 nm. We used a 0.3 cm path-length cuvette to minimize the inner filter effects caused by the absorbance of the noscapinoids. In addition, the inner filter effects were corrected using a formula F corrected = F observed·antilog [(A ex + A em)/2], where A ex is the absorbance at the excitation wavelength and A em is the absorbance at the emission wavelength. The equilibrium dissociation constant (KD) was determined by the formula: 1/a = KD/[free ligand] + 1, where a is the fractional occupancy and [free ligand] is the concentration of free ligand. The fractional occupancy (a) was determined by the formula a = ΔF/ΔF max, where ΔF is the change in fluorescence intensity when tubulin and its ligand are in equilibrium and ΔF max is the value of maximum fluorescence change when tubulin is completely bound with its ligand. ΔF max was calculated by plotting 1/ΔF versus 1/ligand, using total ligand concentration as the first estimate of free ligand concentration. Three independent experiments were performed for each noscapinoid.

[5] = system: human lymphoblast cell line (CEM); assay: In vitro cell proliferation assay (SRB), CEM; type: cell-based; conditions: 72 h, mean ± S.D.
Experimental: as §1

[6] = system: human breast epithelial cell line (MCF-7); assay: In vitro cell proliferation assay (SRB), MCF-7; type: cell-based; conditions: MCF7, 72 h, mean ± S.D.
Experimental: as §1

Row | Structure (SMILES) | IC50 [1] [µM] | Cell cycle parameters % G0/G1, 24 hours [2] [%] | Cell cycle parameters % G2/M, 24 hours [2] [%] | Cell cycle parameters % S, 24 hours [2] [%] | Cell cycle parameters % Sub-G1, 24 hours [2] [%] | Cell cycle parameters % G0/G1, 72 hours [2] [%] | Cell cycle parameters % G2/M, 72 hours [2] [%] | Cell cycle parameters % S, 72 hours [2] [%] | Cell cycle parameters % Sub-G1, 72 hours [2] [%] | IC50 [3] [µM] | Kd [4] [µM] | Experimental ΔGbind [4] [kcal/mol] | IC50 [5] [µM] | IC50 [6] [µM] | melting point [°C]
1 | COc1ccc2c(c1OC)C(=O)O[C@@H]2[C@@H]1NCCc2cc3c(c(OC)c21)OCO3 [Compound 5a, (S)-6,7-dimethoxy-3-((R)-4-methoxy-5,6,7,8-tetrahydro[1,3]dioxolo[4,5-g]isoquinolin-5-yl)isobenzofuran-1(3H)-one] | 41.6 ± 2.1 | 13.47 | 66.37 | 4.08 | 8.46 | 10.74 | 39.25 | 7.08 | 41.57 | 20.9 ± 1.8 | 68 ± 0.7 | -5.691 | 8.9 ± 0.6 | 33.6 ± 1.3 | –
2 | COc1ccc2c(c1OC)C(=O)O[C@@H]2[C@H]1c2c(cc3c(c2OC)OCO3)CCN1Cc1ccccc1 [Compound 6a, (S)-3-((R)-6-benzyl-4-methoxy-5,6,7,8-tetrahydro-[1,3]dioxolo[4,5-g]isoquinolin-5-yl)-6,7-dimethoxyisobenzofuran-1(3H)-one] | 37.7 ± 1.8 | 16.28 | 63.18 | 4.94 | 8.12 | 9.06 | 37.72 | 7.39 | 44.82 | 19.4 ± 1.4 | – | – | 8.3 ± 0.4 | 31.2 ± 1.5 | 64
3 | COc1ccc2c(c1OC)C(=O)O[C@@H]2[C@H]1c2c(cc3c(c2OC)OCO3)CCN1Cc1ccc(Br)cc1 [Compound 6b, 5(S)-3-((R)-6-(4-bromobenzyl)-4-methoxy-5,6,7,8-tetrahydro-[1,3]dioxolo[4,5-g]isoquinolin-5-yl)-6,7-dimethoxyisobenzofuran-1(3H)-one] | 42.4 ± 2.3 | 19.42 | 64.42 | 4.16 | 7.37 | 11.38 | 35.84 | 7.53 | 43.18 | 21.2 ± 2.1 | – | – | 9 ± 0.4 | 34.1 ± 1.6 | 76
4 | COc1ccc2c(c1OC)C(=O)O[C@@H]2[C@H]1c2c(cc3c(c2OC)OCO3)CCN1Cc1ccc([N+](=O)[O-])cc1 [Compound 6c, (S)-6,7-dimethoxy-3-((R)-4-methoxy-6-(4-nitrobenzyl)-5,6,7,8-tetrahydro-[1,3]dioxolo[4,5-g]isoquinolin-5-yl)isobenzofuran-1(3H)-one] | 49 ± 2.5 | 20.72 | 63.49 | 4.85 | 8.08 | 15.38 | 38.41 | 8.27 | 36.73 | 23.7 ± 1.5 | 91 ± 8 | -5.518 | 10 ± 0.8 | 38.2 ± 2.5 | 154
5 | COc1ccc(CN2CCc3cc4c(c(OC)c3[C@@H]2[C@H]2OC(=O)c3c2ccc(OC)c3OC)OCO4)cc1 [Compound 6d, (S)-6,7-dimethoxy-3-((R)-4-methoxy-6-(4-methoxybenzyl)-5,6,7,8-tetrahydro[1,3]dioxolo[4,5-g]isoquinolin-5-yl)isobenzofuran-1(3H)-one] | 33.5 ± 1.7 | 22.73 | 59.41 | 4.62 | 7.27 | 8.29 | 36.18 | 7.83 | 45.38 | 17.9 ± 0.9 | – | – | 7.7 ± 0.3 | 28.7 ± 0.8 | 66
6 | COc1ccc2c(c1OC)C(=O)O[C@@H]2[C@H]1c2c(cc3c(c2OC)OCO3)CCN1Cc1cccc(Cl)c1 [Compound 6e, (S)-3-((R)-6-(3-chlorobenzyl)-4-methoxy-5,6,7,8-tetrahydro-[1,3]dioxolo[4,5-g]isoquinolin-5-yl)-6,7-dimethoxyisobenzofuran-1(3H)-one] | 32.1 ± 1.6 | 12.84 | 68.42 | 4.57 | 8.17 | 7.02 | 38.52 | 6.83 | 45.42 | 17.3 ± 0.7 | – | – | 7.5 ± 0.6 | 27.8 ± 1.3 | 62
7 | COc1cccc(CN2CCc3cc4c(c(OC)c3[C@@H]2[C@H]2OC(=O)c3c2ccc(OC)c3OC)OCO4)c1 [Compound 6g, (S)-6,7-dimethoxy-3-((R)-4-methoxy-6-(3-methoxybenzyl)-5,6,7,8-tetrahydro-[1,3]dioxolo[4,5-g]isoquinolin-5-yl) isobenzofuran-1(3H)-one] | 61.3 ± 3.1 | 20.94 | 62.28 | 4.08 | 10.86 | 12.76 | 37.93 | 8.07 | 40.29 | 28.3 ± 2.1 | – | – | 11.9 ± 0.8 | 45.8 ± 2.2 | 60
8 | COc1ccc2c(c1OC)C(=O)O[C@@H]2[C@H]1c2c(cc3c(c2OC)OCO3)CCN1CC(C)=O [Compound 6h, (S)-6,7-dimethoxy-3-((R)-4-methoxy-6-(2-oxopropyl)-5,6,7,8-tetrahydro-[1,3]dioxolo[4,5-g]isoquinolin-5-yl) isobenzofuran-1(3H)-one] | 28 ± 1.5 | 12.25 | 68.58 | 5.92 | 11.37 | 7.19 | 36.18 | 6.28 | 48.73 | 15.8 ± 0.5 | – | – | 6.9 ± 0.5 | 25.3 ± 1.2 | 179
